Source: US6855730B2, “3-methylidenyl-2-indolinone modulators of protein kinase” (Sugen, Inc., priority 1998, dated 2005)
Counter-ions that a name gives are not always drawn.

Experiments:
[1] = target: Myc-GyrB-FGFR fusion protein (Homo sapiens, UniProt P11362); test: Biochemical FGFR assay (ELISA); settings: read-out: bio fgfR1 IC50
[2] = target: T1, src protein kinase (Gallus gallus, UniProt P00523); test: Biochemical SRC assay (phosphorylation of biotinylated peptide); settings: read-out: bio src IC50
T1 construct: host or cells: Schizosaccharomyces pombe SP200
Experimental: This assay is used to determine src protein kinase activity measuring phosphorylation of a biotinylated peptide as the readout.
Yeast transformed with src (Sugen, Inc., Redwood City, Calif.). • b. Cell lysates: Yeast cells expressing src are pelleted, washed once with water, re-pelleted and stored at −80° C. until use. • c. N-terminus biotinylated [sequence] is prepared by standard procedures well known to those skilled in the art. • d. DMSO: Sigma, St. Louis, Mo. • e. […] Vecastain ELITE ABC reagent: Vector, Burlingame, Calif. • h. […] S. Pombe strain SP200 (h-s leul.32 ura4 ade210) is grown as described and transformations are pRSP expression plasmids are done by the lithium acetate method (Superti-Furga, supra). Cells are grown in the presence of 1 μM thiamine to repress expression from the nmtl promoter or in the absence of thiamine to induce expression. • i. […] Turbo TMB-ELISA peroxidase substrate: Pierce Chemical.
Buffer Solutions • a. PBS (Dulbecco's Phosphate-Buffered Saline): GIBCO PBS, GIBCO Cat. #450-1300EB. • b. Blocking Buffer: 5% Non-fat milk (Carnation) in PBS. • c. Carbonate Buffer: Na2CO4 from Fischer, Cat. # S495, make up 100 mM stock solution. • d. Kinase Buffer: 1.0 ml (from 1M stock solution) MgCl2, 0.2 ml (from a 1M stock solution) MnCl2, 0.2 ml (from a 1M stock solution) DTT, 5.0 ml (from a 1M stock solution) HEPES, 0.1 ml TX-100, bring to 10 ml total volume with MilliQ H2O. • e. […] NaCl: Fischer Cat. # S271-10, Make up 5M stock solution with MilliQ H2O. • i. […] MgCl2: Fischer Cat. # M33-500, make up 1M stock solution with MilliQ H2O. • k. […] MnCl2: Fischer Cat. # M87-100, make up 1M stock solution with MilliQ H2O. • n. DTT: -Fischer Cat. # BP172-5. • o. […] Kinase Reaction Mixture: Amount per assay plate (100 wells): 1.0 ml Kinase Buffer, 200 λg GST-ζ, bring to final volume of 8.0 ml with MilliQ H2O. • q. […] Then add 1 drop of reagent B. Put tube on orbital shaker at room temperature and mix for 30 minutes.
Preparation of src Coated ELISA Plate. • 1. Coat ELISA plate with 0.5 μg/well anti-src mab in 100 μl of pH 9.6 sodium carbonate buffer, hold at 40° C. overnight. • 2. Wash wells once with PBS. • 3. […] Wash plate 5× with PBS. • 5. Add 10 μg/well of src transformed yeast lysates diluted in Lysis Buffer (0.1 ml total volume per well). (Amount of lysate may vary between batches.) Shake plate for 20 minutes at room temperature.
Preparation of Phosphotyrosine Antibody-coated ELISA Plate. • 1. 4G10 plate: coat 0.5 μg/well 4G10 in 100 μl PBS overnight at 4° C. and block with 150 μl of 5% milk in PBS for 30 minutes at room temperature.
Kinase Assay Procedure. • 1. Remove unbound proteins from plates and wash plates 5× with PBS. • 2. […] Wash plate 5× with TBST. • 10. Incubate with Vectastain ELITE ABC reagent (100 μl/well) for 30 min. at room temperature. • 11. Wash the wells 5× with TBST. • 12. Develop with Turbo TMB.

[3] = target: T2, flkGST (Homo sapiens, UniProt P35968); test: bio flkGST assay; type: biochemical
T2 construct: GST
T2 sequence (P35968 786-1356 limits assumed): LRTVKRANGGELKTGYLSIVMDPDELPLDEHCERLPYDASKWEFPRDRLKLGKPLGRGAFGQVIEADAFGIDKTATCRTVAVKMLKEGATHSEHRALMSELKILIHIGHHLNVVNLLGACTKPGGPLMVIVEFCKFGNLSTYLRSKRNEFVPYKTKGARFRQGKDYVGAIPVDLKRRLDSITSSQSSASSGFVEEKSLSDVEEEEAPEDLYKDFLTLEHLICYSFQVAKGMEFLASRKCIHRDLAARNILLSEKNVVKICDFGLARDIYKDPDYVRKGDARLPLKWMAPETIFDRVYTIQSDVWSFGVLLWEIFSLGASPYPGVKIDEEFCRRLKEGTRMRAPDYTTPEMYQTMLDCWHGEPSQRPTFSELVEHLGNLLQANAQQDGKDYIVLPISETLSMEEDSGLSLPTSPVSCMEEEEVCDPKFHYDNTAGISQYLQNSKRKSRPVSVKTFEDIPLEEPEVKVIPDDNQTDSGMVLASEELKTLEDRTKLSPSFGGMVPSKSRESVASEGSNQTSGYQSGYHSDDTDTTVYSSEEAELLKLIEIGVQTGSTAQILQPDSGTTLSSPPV

[4] = target: T3, 3T3 cell line genetically engineered to express human EGF-R (Homo sapiens, UniProt P00533); test: EGF-induced BrdU incorporation assay; type: cell-based; settings: read-out: BrdU EGF driven IC50
T3 construct: expressed in transfected cells; host or cells: 3T3
Experimental: The cellular/catalytic assays described herein are performed in an ELISA format. The general procedure is as follows: a compound is introduced to cells expressing the test kinase, either naturally or recombinantly, for a selected period of time after which, if the test kinase is a receptor, a ligand known to activate the receptor is added. The cells are lysed and the lysate is transferred to the wells of an ELISA plate previously coated with a specific antibody recognizing the substrate of the enzymatic phosphorylation reaction. Non-substrate components of the cell lysate are washed away and the amount of phosphorylation on the substrate is detected with an antibody specifically recognizing phosphotyrosine compared with control cells that were not contacted with a test compound. The cellular/biologic assays described herein measure the amount of DNA made in response to activation of a test kinase, which is a general measure of a proliferative response. The general procedure for this assay is as follows: a compound is introduced to cells expressing the test kinase, either naturally or recombinantly, for a selected period of time after which, if the test kinase is a receptor, a ligand known to activate the receptor is added. After incubation at least overnight, a DNA labeling reagent such as Bromodeoxyuridine (BrdU) or 3H-thymidine is added. The amount of labeled DNA is detected with either an anti-BrdU antibody or by measuring radioactivity and is compared to control cells not contacted with a test compound. […]
Protocol • (1) Cells are seeded at 8000 cells/well in 10% CS, 2mM Gin in DMEM, in a 96 well plate. Cells are incubated overnight at 37° C. in 5% CO2. • (2) After 24 hours, the cells are washed with PBS, and then are serum starved in serum free medium (0% CS DMEM with 0.1% BSA) for 24 hours. • (3) On day 3, ligand (EGF, 2 nM, prepared in DMEM with 0.1% BSA) and test compounds are added to the cells simultaneously. The negative control wells receive serum free DMEM with 0.1% BSA only, the positive control cells receive the ligand (EGF) but no test compound. Test compounds are prepared in serum free DMEM with ligand in a 96 well plate, and serially diluted for 7 test concentrations. • (4) After 20 hours of ligand activation, diluted BrdU labeling reagent (1:100 in DMEM, 0.1% BSA) is added and the cells are incubated with BrdU (final concentration=10 μM) for 1.5 hours. • (5) After incubation with labeling reagent, the medium is removed by decanting and tapping the inverted plate on a paper towel. FixDenat solution is added (50 μl/well) and the plates are incubated at room temperature for 45 minutes on a plate shaker. • (6) The FixDenat solution is thoroughly removed by decanting and tapping the inverted plate on a paper towel. Milk is added (5% dehydrated milk in PBS, 200 μl/well) as a blocking solution and the plate is incubated for 30 minutes at room temperature on a plate shaker. • (7) The blocking solution is removed by decanting and the wells are washed once with PBS. Anti-BrdU-POD solution (1:100 dilution in PBS, 1% BSA) is added (100 μ/well) and the plate is incubated for 90 minutes at room temperature on a plate shaker. • (8) The antibody conjugate is thoroughly removed by decanting and rinsing the wells 5 times with PBS, and the plate is dried by inverting and tapping on a paper towel. • (9) TMB substrate solution is added (100 μl/well) and incubated for 20 minutes at room temperature on a plate shaker until color development is sufficient for photometric detection. • (10) The absorbance of the samples are measured at 410 nm (in “dual wavelength” mode with a filter reading at 490 nm, as a reference wavelength) on a Dynatech ELISA plate reader.

Sequence of Myc-GyrB-FGFR fusion protein (P11362 478-767 limits assumed): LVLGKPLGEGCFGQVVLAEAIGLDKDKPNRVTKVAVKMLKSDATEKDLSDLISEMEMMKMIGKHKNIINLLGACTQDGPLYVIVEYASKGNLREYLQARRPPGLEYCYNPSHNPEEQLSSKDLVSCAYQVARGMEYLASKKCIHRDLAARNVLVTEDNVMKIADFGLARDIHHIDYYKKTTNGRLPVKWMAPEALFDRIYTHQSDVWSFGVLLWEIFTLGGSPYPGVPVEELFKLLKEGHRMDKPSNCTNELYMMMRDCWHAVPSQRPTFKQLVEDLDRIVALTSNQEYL

CNS(=O)(=O)c1ccc2c(c1)C(=Cc1[nH]c3ccccc3c1C)C(=O)N2 (racemic) [Example 154, 3-(3-Methyl-1H-indol-2-ylmethylene)-2-oxo-2,3-dihydro-1H-indole-5-sulfonic acid methylamide]
IC50 [1]: > 20 µM | IC50 [2]: > 100 µM

COc1ccc(/C=C2/C(=O)Nc3ccc(F)cc32)cc1C1CCCC1 [Example 11, 3-(3-Cyclopentyl-4-methoxybenzylidene)-5-fluoro-1,3-dihydroindol-2-one]
IC50 [3]: 24.1 µM | IC50 [4]: 23.3 µM

COc1cc(/C=C2/C(=O)Nc3ccccc32)c(-c2ccc3ccccc3c2)cc1OC [Example 62, 3-(4,5-Dimethoxy-2-naphthalen-2-ylbenzylidene)-1,3-dihydroindol-2-one]
IC50 [4]: > 50 µM

Cc1c(/C=C2\C(=O)Nc3ccc(C(=O)O)cc32)[nH]c2ccccc12 [Example 156, 3-(3-Methyl-1H-indol-2-ylmethylene)-2-oxo-2,3-dihydro-1H-indole-5-carboxylic acid (piperidine salt)]
IC50 [1]: 3.6 µM | IC50 [2]: 0.15 µM
